Patent US20050202465A1, “Thymidylate synthase gene and metastasis” (The Johns Hopkins University, priority 2004, published 2005)

System: colorectal cancer metastases
Test: Overall survival after surgical removal of metastases in 5-FU treated colorectal cancer patients, by TYMS amplification status
Assay type: in vivo, human
Conditions: for Median survival after metastasis removal / Survival range after metastasis removal: previous treatment 5-FU
Procedure: Tissue samples, including normal tissues, primary tumors, and metastases were obtained from colorectal cancer patients undergoing surgery at the Johns Hopkins Hospital between 1990 and 2002. A diagnosis of colorectal cancer was established by histological examination of surgical specimens and clinical information was retrospectively retrieved from patient records. Acquisition of tissue specimens and examination of clinical records was approved by an institutional review board and was performed in accordance with HIPAA regulations. Metastatic samples were obtained from complete resections, debulking, or biopsies of metastatic lesions.
Overall survival was calculated from the date of the surgical excision of the metastasis to the date of death or last follow-up and computed by Kaplan-Meier method. Data were censored when patients were lost to follow-up.
A corollary of this idea is that such patients would fare worse than those without TYMS amplification, as post-surgical therapy of patients with metastatic cancers often involves retreatment with 5-FU plus other agents (see Introduction). To evaluate this possibility, we compared the survival of patients with metastatic lesions that had previously been treated with 5-FU, segregated according to TYMS amplification status. Although the average age, stage at initial diagnosis, and metastasis size and location were similar between patients with and without increased TYMS gene copies, the median overall survival following surgical removal of metastases among patients with TYMS gene amplification was 329 days, as compared with 1021 days for patients without TYMS amplification (Table 2, p<0.01, t-Test). […] These differences were also significant in Kaplan-Meier analyses (FIG. 4).

[1] = Group A (n = 6), TYMS amplified in metastasis
[2] = Group B (n = 21), TYMS not amplified in metastasis

With O=c1[nH]cc(F)c(=O)[nH]1 [5-FU, 5-fluorouracil] the “Relative risk of death, patients with TYMS amplification vs without” value (5-FU treated patients, proportional hazard model, 95% confidence interval 1.06-11.4, p<0.05) was 3.5 fold, the “Median survival after metastasis removal” value [1] was 329 days and the “Survival range after metastasis removal” value [1] was “(109-708 days)”. The “Median survival after metastasis removal” value [2] was 1021 days and the “Survival range after metastasis removal” value [2] was “(255-3790 days)”.
